Results from PMC3124622 (Biochemical and biophysical research communications, 2011).
Entries after “also recorded” stand apart in the source; their conditions may differ. Read-outs that look alike come from different tables or passages of the source.

Experiments:
[1] = biological target: E. coli TGT Wild-Type (Escherichia coli, UniProt P0A847); test: Pteridine inhibition of guanine incorporation; format: biochemical
[2] = biological target: E. coli TGT V217G (Escherichia coli, UniProt P0A847, V217G); test: Pteridine inhibition of guanine incorporation; format: biochemical; conditions: V217G mutant; vs guanine; 20 μM tRNA, pH 7.3
[3] = biological target: E. coli TGT C145V/T146V (Escherichia coli, UniProt P0A847, C145V/T146V); test: Pteridine inhibition of guanine incorporation; format: biochemical; conditions: C145V/T146V mutant; vs guanine; 20 μM tRNA, pH 7.3
[4] = biological target: E. coli TGT C145V/T146V/V217G (Escherichia coli, UniProt P0A847, C145V/T146V/V217G); test: Pteridine inhibition of guanine incorporation; format: biochemical; conditions: C145V/T146V/V217G (triple) mutant; vs guanine; 20 μM tRNA, pH 7.3
[5] = biological target: E. coli TGT C145V/T146V/P147N/V217G (Escherichia coli, UniProt P0A847, C145V/P147N/T146V/V217G); test: Pteridine inhibition of guanine incorporation; format: biochemical; conditions: C145V/T146V/P147N/V217G (quadruple) mutant; vs guanine; 20 μM tRNA, pH 7.3
[6] = tested on: Wild-type and Mutant E. coli TGTs; test: Pteridine inhibition of wild-type and mutant E. coli TGTs; format: biochemical; conditions: the mutant enzymes
[7] = tested on: TGT from rabbit reticulocytes; conditions: cited from earlier work
[8] = biological target: T1, human TGT (Homo sapiens, UniProt Q9BXR0); test: Biopterin inhibition of human TGT; format: biochemical
T1 sequence (Q9BXR0 whole entry): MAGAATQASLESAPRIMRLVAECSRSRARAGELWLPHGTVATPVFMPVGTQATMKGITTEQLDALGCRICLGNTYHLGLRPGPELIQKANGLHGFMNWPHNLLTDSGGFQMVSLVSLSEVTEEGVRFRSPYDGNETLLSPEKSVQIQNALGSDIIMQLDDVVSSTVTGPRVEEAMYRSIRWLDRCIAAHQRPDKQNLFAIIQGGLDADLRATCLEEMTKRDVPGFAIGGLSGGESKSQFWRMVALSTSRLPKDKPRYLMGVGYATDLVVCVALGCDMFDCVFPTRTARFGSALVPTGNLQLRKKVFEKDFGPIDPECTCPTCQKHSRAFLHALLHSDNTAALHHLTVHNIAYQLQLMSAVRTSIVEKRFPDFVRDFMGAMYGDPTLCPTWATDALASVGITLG
T1 sequence (Q9H974 whole entry partner): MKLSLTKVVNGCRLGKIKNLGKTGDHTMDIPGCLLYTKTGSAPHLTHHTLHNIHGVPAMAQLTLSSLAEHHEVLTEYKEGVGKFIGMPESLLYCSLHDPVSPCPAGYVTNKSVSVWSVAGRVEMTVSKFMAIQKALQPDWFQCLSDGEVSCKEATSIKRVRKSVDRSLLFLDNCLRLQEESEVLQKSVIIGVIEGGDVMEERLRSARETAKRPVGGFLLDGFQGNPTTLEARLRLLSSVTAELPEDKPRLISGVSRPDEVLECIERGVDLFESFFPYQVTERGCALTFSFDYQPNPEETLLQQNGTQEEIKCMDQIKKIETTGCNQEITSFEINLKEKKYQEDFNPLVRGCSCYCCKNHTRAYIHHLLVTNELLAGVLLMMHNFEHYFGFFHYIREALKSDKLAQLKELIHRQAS

[9] = biological target: TGT from mouse fibroblasts; conditions: cited from earlier work
[10] = tested on: E. coli TGT (C145V/T146V/V217G); test: Queuine incorporation by the E. coli TGT triple mutant; format: biochemical; conditions: queuine concentrations up to 50 μM (data not shown)
[11] = biological target: T1, human TGT; conditions: queuine as substrate, ref Chen et al. (2011) Nuc. Acids Res. 39, 2834; cited from earlier work

Compound | inhibition (in words) ([1]; wild-type enzyme) | Ki ([1]; wild-type enzyme, vs guanine, 20 μM tRNA, pH 7.3) | Ki [2] | Ki [3] | Ki [4] | Ki [5] | inhibition (in words) [6] | inhibition ([7]; 0.48 μM pterin, rabbit reticulocyte TGT) | inhibition of wild-type TGT ([1]; biopterin concentrations up to 3 mM) | Ki relative to the KM for queuine [8] | mode of inhibition ([8]; with respect to queuine, Dixon and Cornish-Bowden plots) | Ki [9] | inhibition ([7]; 20 μM biopterin, rabbit reticulocyte enzyme) | incorporation of queuine as a substrate [10] | Km [11] | kcat [11]
Nc1nc2nccnc2c(=O)[nH]1 [Pterin, pterin] | inhibited | 420 nM | 900 nM | 2200 nM | 1300 nM | 37000 nM | inhibited | 44% | – | – | – | – | – | – | – | –
biopterin | – | – | – | – | – | – | inhibited | – | no detectable inhibition | ca. 30 fold | competitive inhibitor | ~1000 nM | 39% | – | – | –
Nc1nc2[nH]cc(CN[C@H]3C=C[C@H](O)[C@@H]3O)c2c(=O)[nH]1 [Queuine, queuine] | – | – | – | – | – | – | – | – | – | – | – | – | – | does not recognize; also recorded: no incorporation | 0.26 µM | 8.2 (±0.2) 10^−3•s^−1
